Source: US4581359A, “Pharmacological treatments with N-7-substituted derivatives of theophylline” (priority 1984, dated 1986)
Where “and” joins values, the source holds several entries; their conditions need not be identical. Equal entries are not always repeated. Where two headings read alike, the source gives them in different places.

Columns and labels:
[1] = in vivo; cited from earlier work
[2] = cited from earlier work
[3] = test system: mediator-induced broncoconstriction; details: cited from earlier work
[4] = Fatal toxicity of theophylline, repeated aminophylline infusion in rabbits (Example 1); assay type: in vivo, female New Zealand White rabbits; details: for Vd: rabbit, blood, iv
Procedure: Aminophylline (40 mg/kg) was infused into four rabbits over fifteen minutes once every two hours until the rabbits died. After the first infusion, blood concentrations of theophylline averaged about 100 mcg/ml in all four rabbits. […] In the second period total xanthine blood concentrations of theophylline averaged about 250 mcg/ml. Three rabbits died in this period with theophylline blood concentrations of about 250 mcg/ml. One rabbit died shortly after the third infusion which gave a blood theophylline concentration of about 400 mcg/ml. […] The last blood sample for each rabbit was collected immediately after the rabbit died.

[5] = Concomitant dyphylline and aminophylline in two horses: plasma concentration, blood pressure, pulse (Example 3); details: for Cmax: peak plasma concentration of theophylline
Procedure: Two horses were administered dyphylline and aminophylline concomitantly.
The second horse was given a bolus injection of dyphylline (20 mg/kg as 100 mg/ml solution in D5W) over 15 seconds into the jugular vein. Aminophylline infusion (10 mg/kg dissolved in one liter of D5W) was started immediately and administered over 20 minutes.

[6] = Theophylline (aminophylline) intravenous infusion in rabbits: blood concentration, pharmacokinetics, toxicity (Example 1); assay type: in vivo, female New Zealand White rabbits; details: for visible toxicity: aminophylline 40 mg/kg over 15 minutes, three rabbits
Procedure: Analytical grade chemicals were used without further purification. All water was distilled prior to use. 250 mg/10 ml aminophylline injection (Searle Laboratories, Chicago, Ill.) was diluted with an appropriate amount of distilled water for injection. Dyphylline powder (Lemmon Company, Sellersville, Pa.) was dissolved in distilled water for injection.
A high-pressure liquid chromatographic (HPLC) system consisted of a delivery pump (M-6000A, Waters Associates, Milford, Mass.), sample injection apparatus (Model U6K, Waters Associates, Milford, Mass.), 30-cm reverse phase column (μBondapak C18, Waters Associates, Milford, Mass.), UV detector (Model 440, Waters Associates, Milford, Mass.) with wavelength of 280 nm and a dual pen recorder (Soltec Co., Encino, Calif.) which were used at ambient temperature.
The internal standard used was β-hydroxypropyl theophylline (Aldrich Chemical Co., Inc., Milwaukee, Wis.) in acetonitrile which was prepared in a 500 ml volumetric flask as a stock solution, and kept tightly sealed except during use throughout the experiment. Internal standard solution (0.4 ml) was added to an equal volume (0.4 ml) of sample to precipitate protein. After centrifuging for 10 minutes, the supernatant was injected into the HPLC. The HPLC operating conditions included a mobile phase composed of acetonitrile (6 percent V/V) in distilled water and a flow rate of 2.0 ml/min.
A typical semilogrithmic plot of a blood theophylline concentration versus time curves, for each of the three rabbits after a zero-order aminophylline infusion of 40 mg/kg over fifteen minutes, is shown in FIG. 2. The data were fitted to a two-compartment open pharmacokinetic model with first order elimination using PROPHET (PROPHET computer system, FIT FUN routine, Director, Chemical/Biological Information Handling Program, Division of Research Resources, NIH, Bethesda, MD.) The parameters generated from three rabbits were corrected for infusion time, (as described by Gibaldi) and are listed in Table II.

[7] = Single and combined intravenous methyl xanthines in rabbits: heart rate, deaths, plasma concentrations (Example 6); assay type: in vivo, female rabbits; details: for heart rate, individual drug treatment: one rabbit each, normal about 220 bpm
Procedure: T 40 mg/kg of aminophylline infused at the rate of 0.21 ml/min over 30
T/D 40 mg/kg of aminophylline infused at the rate of 0.21 ml/min over 30
T/E 40 mg/kg of aminophylline infused at the rate of 0.21 ml/min over 30
T/P 40 mg/kg of aminophylline infused at the rate of 0.21 ml/min over 30

[8] = cited from earlier work; remark: listed apart in the source
[9] = cited from earlier work; remark: listed apart in the source
[10] = Concurrent administration of theophylline and dyphylline in rabbits: pharmacokinetics and toxicity (Example 1); details: rabbit, iv, 40 mg/kg
Procedure: All experiments of this example were performed using female New Zealand White rabbits. These rabbits (2.4-3.6 kg) were housed in a controlled environment and allowed free access to water and food.
Before dosing with drug the rabbit ear hair was clipped and treated with hair remover lotion (sold under the trademark NAIR, Carter-Wallace, Inc., New York, N.Y.), a catheter (Quick-Cath, 20 Ga, Travenol Laboratories, Inc., Deerfield, Ill.) and sterile intermittent infusion plug were then inserted in the rabbit's ear vein for infusion. […] For each separate administration of theophylline, a suitable amount of aminophylline (40 mg/kg) was dissolved in distilled water to make 10 ml injectable solution which was administered into a rabbit's ear vein as a continuous infusion over a period of 15 minutes.
Blood samples were collected from an ear vein (in the opposite ear from the infusion) at predetermined time intervals. Before collecting each sample, the rabbit ear was treated topically with xylene to dilate the ear vein for convenient sample collection. Immediately after each blood sample was drawn, 0.4 ml of blood was transfered to the centrifuge tube and 0.4 ml of acetronitrile with appropriate internal standard was added to precipitate the protein and extract drug components. After vortexing well, the blood acetonitrile mixture was centrifuged at 3000×G for ten minutes, and 10 μl of supernatent solution was then injected into the HPLC.
The post infusion data of theophylline were fitted to a two-compartment open model using the same procedure as described above. Although samples were collected while infusion of dyphylline was continuing, only post infusion data were used for dyphylline pharmacokinetic analysis.

[11] = Winter; cited from earlier work
[12] = Plasma and cerebral spinal fluid concentrations in an anesthetized horse (Example 4); details: 0, 30 mins, 1 hour, 2 hours, 3 hours, 4 hours, 24 hours; for Cerebral spinal fluid concentration, theophylline: aminophylline 10 mg/kg + dyphylline 20 mg/kg bolus
Procedure: (§1) One horse was administered acetyl promazine thiamyol sodium, quaifensin, and halothane to produce general anesthesia. Dyphylline (20 mg/kg) was given as an intravenous bolus injection in less than 15 seconds and aminophylline (10 mg/kg) was given as an infusion over about 20 minutes. Plasma and cerebral spinal fluid were collected and assayed by high pressure liquid chromatography for both dyphylline and theophylline.

[13] = in vivo
Procedure: as §1

Cn1c(=O)c2c(ncn2CC(=O)O)n(C)c1=O [acephylline, 1,3-dimethylxanthinylacetic acid]
oral absorption [1]: not absorbed orally
conversion to theophylline in the body ([2]; literature): not converted to theophylline in the body
efficacy against mediator-induced broncoconstriction ([3]; guinea-pigs): ineffective

Cn1c(=O)c2[nH]cnc2n(C)c1=O [aminophylline]
toxicity and death ([4]; aminophylline 40 mg/kg every two hours until death): All the rabbits died following a short period of severe convulsions
Pulse, Horse 1 ([5]; 10 min to 240 min as for systolic, Horse 1, time 0: 42): 44 beats per minute and 60 beats per minute and 56 beats per minute
Blood pressure Mean, Horse 1 ([5]; 10 min to 240 min as for systolic, Horse 1, time 0: 119): 106 and 156 and 123
Blood pressure D, Horse 1 ([5]; 10 min to 240 min as for systolic, Horse 1, time 0: 156/98): 83 and 117 and 90
visible toxicity [6]: caused some visible toxicity but was not lethal

Cn1c(=O)c2c(ncn2CCO)n(C)c1=O [etophylline, β-hydroxyethylthophylline]
conversion to theophylline in the body ([2]; in vivo): not converted to theophylline in the body
heart rate, individual drug treatment [7]: 100 bpm
activity relative to theophylline ([3]; based on effective plasma drug concentrations): 0.44 times theophylline

CC(O)Cn1cnc2c1c(=O)n(C)c(=O)n2C (stereo not drawn) [proxyphylline, 7-β-hydroxypropyl-theophylline]
heart rate, individual drug treatment [7]: about 96 bpm
plasma concentration of proxyphylline ([8]; combined with theophylline and dyphylline (Bracher; Werdermann)): less than 9.0 mcg/ml
plasma concentration, each drug ([8]; dyphylline and proxyphylline (Joos et al.), 90 min): about 13 mcg/ml

Cn1c(=O)c2[nH]cnc2n(C)c1=O [theophylline]
effective plasma concentration ([9]; humans): 10 to 20 µg/mL
effectiveness and toxicity, dyphylline versus theophylline ([9]; literature): more effective and toxic than dyphylline
effects of excessive dose or too rapid administration ([9]; total dose in less than about twenty minutes): blood pressure drop and may develop convulsions which in some instances lead to death
Vd ([10]; in vivo, Vd(B), theophylline followed by dyphylline, b237, b241, b245, b249 rabbits 45-48, b250 mean): 0.35 L/kg
concentration at 0.25 h [10]: ~150 µg/mL
Vd ([10]; Vc): 0.151 L/kg
Vd ([10]; Vd(B)): 0.403 L/kg
half-life ([10]; average half-life of theophylline): 6 to 6.5 h
Vd ([10]; average total volume of distribution of theophylline given with dyphylline): ~0.35 L/kg
total volume of distribution, average [11]: about 0.48 L/kg
tissue distribution ([2]; literature): penetrate the central nervous system, to infiltrate heart tissue and to distribute to lung tissue
average blood concentration of theophylline after first infusion ([4]; four rabbits, all survived first period, 40 mg/kg): about 100 mcg/ml
volume of distribution (Vd), individual rabbits ([4]; from FIG. 3 data 1 to 2 hours, prior to second infusion, 40 mg/kg): 0.32 L/kg and 0.33 L/kg
blood theophylline concentration after third infusion (rabbit died) ([4]; one rabbit, 40 mg/kg): about 400 mcg/ml
Vd ([4]; 40 mg/kg, from FIG. 3 data 1 to 2 hours, prior to second infusion, read-out: volume of distribution (Vd), individual rabbits): 0.37 L/kg
Vd ([4]; 40 mg/kg, from FIG. 3 data 1 to 2 hours, four rabbits, read-out: volume of distribution (Vd), average): 0.35 L/kg
average blood concentration of theophylline, second period (three rabbits died) ([4]; second infusion, 40 mg/kg): about 250 mcg/ml
theophylline concentration causing convulsions and death ([4]; theophylline alone): ~250 µg/mL
Cerebral spinal fluid concentration, theophylline [12]: 0 µg/mL
Cerebral spinal fluid concentration, theophylline ([12]; 10 mg/kg): 5.3 µg/mL
Plasma concentration, theophylline ([12]; aminophylline 10 mg/kg over 20 min + dyphylline 20 mg/kg bolus): 0 ng/mL
concentration at 40 min ([5]; horse, in vivo, iv, 10 mg/kg): 9 to 10 µg/mL
Cmax ([5]; horse, in vivo, iv, 10 mg/kg, first horse, aminophylline 10 mg/kg over 17 minutes, dyphylline 20 mg/kg bolus at 40 minutes): 18 µg/mL
Cmax ([5]; horse, in vivo, iv, 10 mg/kg, second horse, dyphylline 20 mg/kg bolus then aminophylline 10 mg/kg over 20 minutes): 35 µg/mL
toxicity ([7]; rabbits): close to lethal
visible toxicity [6]: one rabbit exhibited obvious signs of theophylline toxicity
t1/2 ([6]; aminophylline 40 mg/kg, alone, rabbits 29, 30, 32, mean, 40 mg/kg): 6.3 h and 6.861 h and 6.30 h
Vd ([6]; rabbit, in vivo, iv, 40 mg/kg, Vd): 0.279 L/kg
Vd ([6]; rabbit, in vivo, iv, 40 mg/kg, Vel (β)): 0.562 L/kg
half-life ([6]; rabbit, in vivo, iv, 40 mg/kg, aminophylline 40 mg/kg, alone, rabbits 29, 30, 32, mean): 5.73 h
concentration at 0.25 h ([6]; rabbit, in vivo, iv, 40 mg/kg, average blood concentration of theophylline immediately after stopping the infusion, Table II rabbits): ~100 µg/mL
Vd ([6]; rabbit, in vivo, iv, 40 mg/kg, average total volume of distribution of theophylline given alone): ~0.59 L/kg
concentration at 0.25 h ([6]; rabbit, in vivo, iv, 40 mg/kg, blood concentration of theophylline when the infusion was stopped): 110 to 130 µg/mL
k el ([6]; rabbit, in vivo, iv, 40 mg/kg, k10): 6.75e-05 s⁻¹
penetration into cerebral spinal fluid [13]: penetrate into cerebral spinal fluid
